Patent publication US20210330611A1, “THERAPY FOR NEUROLOGICAL DISEASES/DISORDERS” (priority 2020, published 2021)
Structures can show the parent of a compound that is named as a salt. Where two headings read alike, the source gives them in different places.

Key:
primary rat microglia [1] = test system: primary rat microglia
[2] = test system: LPS-induced microglia activation; experiment: Image-based assay of LPS-induced microglia activation (HTS and dose response); type: cell-based, rat; details: for inhibition at 10 µM: Rattus norvegicus, Microglia, read-out: LPS % inhibition
[3] = test system: fibrin-induced microglia activation; experiment: Image-based assay of fibrin-induced microglia activation (HTS and dose response); type: cell-based, rat; details: for inhibition at 10 µM: Rattus norvegicus, Microglia, read-out: Fibrin % inhibition
primary rat microglia [4] = experiment: Cell toxicity (dead cells, size <150 μm2) in LPS assay
[5] = test system: fibrin- and LPS-induced microglia activation; experiment: cells; type: cell-based, rat
primary rat microglia [6] = experiment: Cell toxicity (dead cells, size <150 μm2) in coated fibrin (cFib) assay;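 note: share of dead cells sized under 150 µm2 at 10 µM in fibrin-stimulated microglia HTS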
[7] = primary microglia HTS, fibrin stimulation, increased cell size (>800 μm^2) as marker of activation
[8] = primary microglia HTS, LPS stimulation, decreased size (<150 μm^2) as marker of toxicity
[9] = 48 h, primary microglia HTS, LPS stimulation, increased cell size (>800 μm^2) as marker of activation
[10] = quadrant by fibrin and LPS inhibition in HTS of 1907 compounds
[11] = primary microglia HTS, fibrin stimulation, decreased size (<150 μm^2) as marker of toxicity
[12] = primary microglia HTS, LPS stimulation, toxicity = cell size <150 μm2
[13] = 48 h, primary microglia HTS, LPS stimulation, activation = cell size >800 μm2
[14] = primary microglia HTS, fibrin stimulation, toxicity = cell size <150 μm2
[15] = primary microglia HTS, fibrin stimulation, activation = cell size >800 μm2
[16] = primary microglia HTS, 10 μM, LPS assay, cell size <150 μm^2 as marker of toxicity
[17] = primary microglia HTS, 10 μM, LPS-stimulated, cell size >800 μm^2 as marker of activation
[18] = HTS of 1907 compounds, quadrant by fibrin and LPS inhibition
[19] = primary microglia HTS, 10 μM, fibrin assay, cell size <150 μm^2 as marker of toxicity
[20] = primary microglia HTS, 10 μM, fibrin-stimulated, cell size >800 μm^2 as marker of activation
[21] = primary HTS, 10 μM, LPS assay, dead cells size <150 μm2
[22] = primary HTS, 10 μM, LPS-stimulated primary microglia
[23] = primary HTS, 10 μM, fibrin assay, dead cells size <150 μm2
[24] = primary HTS, 10 μM, fibrin-stimulated primary microglia

## CN(Cc1cnc2nc(N)nc(N)c2n1)c1ccc(C(=O)N[C@@H](CCC(=O)O)C(=O)O)cc1 (racemic) [Methotrexate(+/−)]
Primary rat microglia [1]
  Fibrin % cell toxicity: 0%
[2]; primary microglia HTS, LPS stimulation, increased cell size (>800 μm^2) as marker of activation
  LPS % inhibition: 0%
[3]; [7]
  Fibrin % inhibition: 0%

## CCCCN1C[C@H](O)[C@@H](O)[C@H](O)[C@H]1CO [Miglustat]
Primary rat microglia [4]; [8]
  LPS % cell toxicity: 0%
[2]; [9]
  inhibition at 10 µM: 0%
[5]; [10]
  Quadrant (FIG. 5b): Q4
Primary rat microglia [6]; [11]
  Fibrin % cell toxicity: 1%
[3]; [7]
  inhibition at 10 µM: -6%

## CCN(CC)CCOc1ccc2c(c1)C(=O)c1cc(OCCN(CC)CC)ccc1-2 [Tilorone]
Primary rat microglia [4]; [8]
  LPS % cell toxicity: 1%
[2]; [9]
  inhibition at 10 µM: 60%
[5]; [10]
  Quadrant (FIG. 5b): Q1
Primary rat microglia [6]; [11]
  Fibrin % cell toxicity: 0%
[3]; [7]
  inhibition at 10 µM: -21%

## Cc1c(OCC(F)(F)F)ccnc1C[S+]([O-])c1nc2ccccc2[nH]1 (stereo not drawn) [Lansoprazole]
Primary rat microglia [4]; [12]
  LPS % cell toxicity: 0%
[2]; [13]
  inhibition at 10 µM: 15%
[5]; [10]
  Quadrant (FIG. 5b): Q4
Primary rat microglia [6]; [14]
  Fibrin % cell toxicity: 0%
[3]; [15]
  inhibition at 10 µM: 3%

## NC(=O)NC(=O)Cc1ccccc1 [Phenacemide]
Primary rat microglia [4]; [8]
  LPS % cell toxicity: 1%
[2]; [9]
  inhibition at 10 µM: 66%
[5]; [10]
  Quadrant (FIG. 5b): Q1
Primary rat microglia [6]; [11]
  Fibrin % cell toxicity: 1%
[3]; [7]
  inhibition at 10 µM: -9%

## CCOC(=O)NNc1nncc2ccccc12 [Todralazine Hydrochloride]
Primary rat microglia [4]; [16]
  LPS % cell toxicity: 0%
[2]; [17]
  inhibition at 10 µM: 19%
[5]; [18]
  Quadrant (FIG. 5b): Q4
Primary rat microglia [6]; [19]
  Fibrin % cell toxicity: 1%
[3]; [20]
  inhibition at 10 µM: 0%

## CC(C)[N+](C)(CCC(C(N)=O)(c1ccccc1)c1ccccc1)C(C)C [Isopropamide]
Primary rat microglia [4]; [12]
  LPS % cell toxicity: 0%
[2]; [13]
  inhibition at 10 µM: 24%
[5]; [10]
  Quadrant (FIG. 5b): Q4
Primary rat microglia [6]; [14]
  Fibrin % cell toxicity: 0%
[3]; [15]
  inhibition at 10 µM: 19%

## CC(C)COC(=O)c1ccc(N)cc1 [Isobutamben]
Primary rat microglia [4]; [12]
  LPS % cell toxicity: 0%
[2]; [13]
  inhibition at 10 µM: -1%
[5]; [10]
  Quadrant (FIG. 5b): Q4
Primary rat microglia [6]; [14]
  Fibrin % cell toxicity: 1%
[3]; [15]
  inhibition at 10 µM: -5%

## CC(N)Cc1ccc(O)cc1 (stereo not drawn) [Hydroxyamphetamine]
Primary rat microglia [4]; [12]
  LPS % cell toxicity: 0%
[2]; [13]
  inhibition at 10 µM: -2%
[5]; [10]
  Quadrant (FIG. 5b): Q4
Primary rat microglia [6]; [14]
  Fibrin % cell toxicity: 1%
[3]; [15]
  inhibition at 10 µM: -12%

## CN1C(=O)CCS(=O)(=O)C1c1ccc(Cl)cc1 (stereo not drawn) [Chlomezanone, Chlormezanone]
Primary rat microglia [4]; [21]
  LPS % cell toxicity: 0%
[2]; [22]
  LPS % inhibition: 12%
[5]; primary HTS, 10 μM
  Quadrant (FIG. 5b): Q4
Primary rat microglia [6]; [23]
  Fibrin % cell toxicity: 1%
[3]; [24]
  Fibrin % inhibition: −52%

## COc1ccccc1N1CCN(CCCNc2cc(=O)n(C)c(=O)n2C)CC1 [Urapidil Hydrochloride]
Primary rat microglia [4]; [16]
  LPS % cell toxicity: 0%
[2]; [17]
  inhibition at 10 µM: 20%
[5]; [18]
  Quadrant (FIG. 5b): Q4
Primary rat microglia [6]; [19]
  Fibrin % cell toxicity: 1%
[3]; [20]
  inhibition at 10 µM: -6%

## CO/N=C(\C(=O)N[C@@H]1C(=O)N2C(C(=O)O)=C(COC(C)=O)CS[C@H]12)c1csc(N)n1 [Cefotaxime]
Primary rat microglia [4]; [21]
  LPS % cell toxicity: 0%
[2]; [22]
  LPS % inhibition: −8%
[5]; primary HTS, 10 μM
  Quadrant (FIG. 5b): Q4
Primary rat microglia [6]; [23]
  Fibrin % cell toxicity: 1%
[3]; [24]
  Fibrin % inhibition: −20%

## C=COCC(F)(F)F [Fluroxene]
Primary rat microglia [4]; [12]
  LPS % cell toxicity: 0%
[2]; [13]
  inhibition at 10 µM: 11%
[5]; [10]
  Quadrant (FIG. 5b): Q4
Primary rat microglia [6]; [14]
  Fibrin % cell toxicity: 0%
[3]; [15]
  inhibition at 10 µM: -19%

## COC(=O)C(N)CS (stereo not drawn) [Mecysteine Hydrochloride]
Primary rat microglia [4]; [8]
  LPS % cell toxicity: 0%
[2]; [9]
  inhibition at 10 µM: 22%
[5]; [10]
  Quadrant (FIG. 5b): Q4
Primary rat microglia [6]; [11]
  Fibrin % cell toxicity: 1%
[3]; [7]
  inhibition at 10 µM: 20%

## C=C(C)[C@H]1CN[C@H](C(=O)O)[C@H]1CC(=O)O [Kainic Acid]
Primary rat microglia [4]; [12]
  LPS % cell toxicity: 0%
[2]; [13]
  inhibition at 10 µM: 14%
[5]; [10]
  Quadrant (FIG. 5b): Q4
Primary rat microglia [6]; [14]
  Fibrin % cell toxicity: 0%
[3]; [15]
  inhibition at 10 µM: -77%

## C[C@H](CCC(=O)O)[C@H]1CC[C@H]2[C@@H]3[C@@H](O)C[C@@H]4C[C@H](O)CC[C@]4(C)[C@H]3CC[C@]12C [Ursodeoxycholic Acid]
Primary rat microglia [4]; [16]
  LPS % cell toxicity: 0%
[2]; [17]
  LPS % inhibition: 1%
[5]; [18]
  Quadrant (FIG. 5b): Q4
Primary rat microglia [6]; [19]
  Fibrin % cell toxicity: 1%
[3]; [20]
  Fibrin % inhibition: −18%
